From publication PMC11277489, “Novel Piperazine Derivatives of Vindoline as Anticancer Agents” (International Journal of Molecular Sciences, 2024)

Tests used:
A549/ATCC = test: NCI60 one-dose screen (10 μM), Non-small Cell Lung Cancer; type: cell-based; conditions: Homo sapiens; 10 μM; A549/ATCC, Non-small Cell Lung Cancer; read-out: Growth percent rate
MCF7 = test: NCI60 one-dose screen (10 μM), Breast Cancer; type: cell-based; conditions: Homo sapiens; 10 μM; MCF7, Breast Cancer; read-out: Growth percent rate
SF-539 = test: NCI60 one-dose screen (10 μM), CNS Cancer; type: cell-based, human; conditions: Homo sapiens; 10 μM; SF-539, CNS Cancer; read-out: Growth percent rate
SK-MEL-2 = test: NCI60 one-dose screen (10 μM), Melanoma; type: cell-based; conditions: Homo sapiens; 10 μM; SK-MEL-2, Melanoma; read-out: Growth percent rate
TK-10 = test: NCI60 one-dose screen (10 μM), Renal Cancer; type: cell-based; conditions: Homo sapiens; 10 μM; TK-10, Renal Cancer; read-out: Growth percent rate
SW-620 = test: NCI60 one-dose screen (10 μM), Colon Cancer; type: cell-based; conditions: Homo sapiens; 10 μM; SW-620, Colon Cancer; read-out: Growth percent rate
HS 578T = test: NCI60 one-dose screen (10 μM), Breast Cancer; type: cell-based; conditions: Homo sapiens; 10 μM; HS 578T, Breast Cancer; read-out: Growth percent rate
M14 = test: NCI60 one-dose screen (10 μM), Melanoma; type: cell-based; conditions: Homo sapiens; 10 μM; M14, Melanoma; read-out: Growth percent rate
NCI-H460 = test: NCI60 one-dose screen (10 μM), Non-small Cell Lung Cancer; type: cell-based; conditions: Homo sapiens; 10 μM; NCI-H460, Non-small Cell Lung Cancer; read-out: Growth percent rate
HL-60(TB) = test: NCI60 one-dose screen (10 μM), Leukemia; type: cell-based; conditions: Homo sapiens; 10 μM; HL-60(TB), Leukemia; read-out: Growth percent rate
UACC-257 = test: NCI60 one-dose screen (10 μM), Melanoma; type: cell-based; conditions: Homo sapiens; 10 μM; UACC-257, Melanoma; read-out: Growth percent rate
SNB-75 = test: NCI60 one-dose screen (10 μM), CNS Cancer; type: cell-based, human; conditions: Homo sapiens; 10 μM; SNB-75, CNS Cancer; read-out: Growth percent rate
HCT-116 = test: NCI60 one-dose screen (10 μM), Colon Cancer; type: cell-based; conditions: Homo sapiens; 10 μM; HCT-116, Colon Cancer; read-out: Growth percent rate
NCI-H522 = test: NCI60 one-dose screen (10 μM), Non-small Cell Lung Cancer; type: cell-based; conditions: Homo sapiens; 10 μM; NCI-H522, Non-small Cell Lung Cancer; read-out: Growth percent rate
MOLT-4 = test: NCI60 one-dose screen (10 μM), Leukemia; type: cell-based, human; conditions: Homo sapiens; 10 μM; MOLT-4, Leukemia; read-out: Growth percent rate
OVCAR-3 = test: NCI60 one-dose screen (10 μM), Ovarian Cancer; type: cell-based; conditions: Homo sapiens; 10 μM; OVCAR-3, Ovarian Cancer; read-out: Growth percent rate
K-562 = test: NCI60 one-dose screen (10 μM), Leukemia; type: cell-based; conditions: Homo sapiens, K562; 10 μM; K-562, Leukemia; read-out: Growth percent rate
A498 = test: NCI60 one-dose screen (10 μM), Renal Cancer; type: cell-based; conditions: Homo sapiens; 10 μM; A498, Renal Cancer; read-out: Growth percent rate
HT29 = test: NCI60 one-dose screen (10 μM), Colon Cancer; type: cell-based; conditions: Homo sapiens, HT-29; 10 μM; HT29, Colon Cancer; read-out: Growth percent rate
SN12C = test: NCI60 one-dose screen (10 μM), Renal Cancer; type: cell-based; conditions: Homo sapiens, 10 μM, Renal Cancer, read-out: Growth percent rate
NCI-H23 = test: NCI60 one-dose screen (10 μM), Non-small Cell Lung Cancer; type: cell-based; conditions: Homo sapiens; 10 μM; NCI-H23, Non-small Cell Lung Cancer; read-out: Growth percent rate
HCC-2998 = test: NCI60 one-dose screen (10 μM), Colon Cancer; type: cell-based; conditions: Homo sapiens; 10 μM; HCC-2998, Colon Cancer; read-out: Growth percent rate
MALME-3M = test: NCI60 one-dose screen (10 μM), Melanoma; type: cell-based; conditions: Homo sapiens; 10 μM; MALME-3M, Melanoma; read-out: Growth percent rate
ACHN = test: NCI60 one-dose screen (10 μM), Renal Cancer; type: cell-based; conditions: Homo sapiens, 10 μM, Renal Cancer, read-out: Growth percent rate
OVCAR-8 = test: NCI60 one-dose screen (10 μM), Ovarian Cancer; type: cell-based; conditions: Homo sapiens; 10 μM; OVCAR-8, Ovarian Cancer; read-out: Growth percent rate
CCRF-CEM = test: NCI60 one-dose screen (10 μM), Leukemia; type: cell-based; conditions: Homo sapiens, 10 μM, Leukemia, read-out: Growth percent rate
RPMI-8226 = test: NCI60 one-dose screen (10 μM), Leukemia; type: cell-based; conditions: Homo sapiens; 10 μM; RPMI-8226, Leukemia; read-out: Growth percent rate
SK-MEL-5 = test: NCI60 one-dose screen (10 μM), Melanoma; type: cell-based, human; conditions: Homo sapiens; 10 μM; SK-MEL-5, Melanoma; read-out: Growth percent rate
HCT-15 = test: NCI60 one-dose screen (10 μM), Colon Cancer; type: cell-based; conditions: Homo sapiens; 10 μM; HCT-15, Colon Cancer; read-out: Growth percent rate
KM12 = test: NCI60 one-dose screen (10 μM), Colon Cancer; type: cell-based, human; conditions: Homo sapiens; 10 μM; KM12, Colon Cancer; read-out: Growth percent rate
MDA-MB-435 = test: NCI60 one-dose screen (10 μM), Melanoma; type: cell-based; conditions: Homo sapiens; 10 μM; MDA-MB-435, Melanoma; read-out: Growth percent rate
786–0 = test: NCI60 one-dose screen (10 μM), Renal Cancer; type: cell-based; conditions: Homo sapiens; 10 μM; 786-0, Renal Cancer; read-out: Growth percent rate
SF-295 = test: NCI60 one-dose screen (10 μM), CNS Cancer; type: cell-based; conditions: Homo sapiens; 10 μM; SF-295, CNS Cancer; read-out: Growth percent rate
SK-MEL-28 = test: NCI60 one-dose screen (10 μM), Melanoma; type: cell-based; conditions: Homo sapiens; 10 μM; SK-MEL-28, Melanoma; read-out: Growth percent rate
NCI-H322M = test: NCI60 one-dose screen (10 μM), Non-small Cell Lung Cancer; type: cell-based; conditions: Homo sapiens, 10 μM, Non-small Cell Lung Cancer, read-out: Growth percent rate
CAKI-1 = test: NCI60 one-dose screen (10 μM), Renal Cancer; type: cell-based; conditions: Homo sapiens; 10 μM; CAKI-1, Renal Cancer; read-out: Growth percent rate
COLO 205 = test: NCI60 one-dose screen (10 μM), Colon Cancer; type: cell-based, human; conditions: Homo sapiens; 10 μM; COLO 205, Colon Cancer; read-out: Growth percent rate
U251 = test: NCI60 one-dose screen (10 μM), CNS Cancer; type: cell-based; conditions: Homo sapiens, U-251; 10 μM; U251, CNS Cancer; read-out: Growth percent rate
HOP-62 = test: NCI60 one-dose screen (10 μM), Non-small Cell Lung Cancer; type: cell-based; conditions: Homo sapiens; 10 μM; HOP-62, Non-small Cell Lung Cancer; read-out: Growth percent rate
SNB-19 = test: NCI60 one-dose screen (10 μM), CNS Cancer; type: cell-based; conditions: Homo sapiens; 10 μM; SNB-19, CNS Cancer; read-out: Growth percent rate
IGROV1 = test: NCI60 one-dose screen (10 μM), Ovarian Cancer; type: cell-based; conditions: Homo sapiens, IGROV-1; 10 μM; IGROV1, Ovarian Cancer; read-out: Growth percent rate
EKVX = test: NCI60 one-dose screen (10 μM), Non-small Cell Lung Cancer; type: cell-based; conditions: Homo sapiens, 10 μM, Non-small Cell Lung Cancer, read-out: Growth percent rate

Molecule `CC[C@]12C=CCN3CC[C@@]4(c5ccc(OC)cc5N(C)[C@H]4[C@@](O)(C(=O)OC)[C@@H]1OC(=O)CCCN1CCN(Cc4ccc(C(F)(F)F)cc4)CC1)[C@@H]32` [Compound 23] has an activity at 10 µM (A549/ATCC) of -67.8%, an activity at 10 µM (MCF7) of -74.3% and an activity at 10 µM (SF-539) of -98.5%. The activity at 10 µM (SK-MEL-2) was -72.6%, the activity at 10 µM (TK-10) was -81.7% and the activity at 10 µM (SW-620) was -87.1%. For the same molecule, the activity at 10 µM (HS 578T) was -61.1%, the activity at 10 µM (M14) was -88.9% and the activity at 10 µM (NCI-H460) was -84.7%. The activity at 10 µM (HL-60(TB)) was -65.8%, the activity at 10 µM (UACC-257) was -82.2% and the activity at 10 µM (SNB-75) was -68.8%. For the same molecule, the activity at 10 µM (HCT-116) was -89.3%, the activity at 10 µM (NCI-H522) was -59.3% and the activity at 10 µM (MOLT-4) was -68.5%. The activity at 10 µM (OVCAR-3) was -68.4%, the activity at 10 µM (K-562) was -73.3% and the activity at 10 µM (A498) was -93.9%. The activity at 10 µM (HT29) was -54.4%, the activity at 10 µM (SN12C) was -4.35% and the activity at 10 µM (NCI-H23) was -71.3%. The activity at 10 µM (HCC-2998) was -83.6%, the activity at 10 µM (MALME-3M) was -95.2% and the activity at 10 µM (ACHN) was -78.1%. The activity at 10 µM (OVCAR-8) was -42%, the activity at 10 µM (CCRF-CEM) was -63.1% and the activity at 10 µM (RPMI-8226) was -58.3%. For the same molecule, the activity at 10 µM (SK-MEL-5) was -98.5%, the activity at 10 µM (HCT-15) was -68.1% and the activity at 10 µM (KM12) was -70.9%. For the same molecule, the activity at 10 µM (MDA-MB-435) was -95.3%, the activity at 10 µM (786–0) was -95.7% and the activity at 10 µM (SF-295) was -86.7%. It also gave an activity at 10 µM (SK-MEL-28) of -94.8%, an activity at 10 µM (NCI-H322M) of -48.2% and an activity at 10 µM (CAKI-1) of -78%. For the same molecule, the activity at 10 µM (COLO 205) was -82.9%, the activity at 10 µM (U251) was -78.1% and the activity at 10 µM (HOP-62) was -86.7%. The activity at 10 µM (SNB-19) was -89.1%, the activity at 10 µM (IGROV1) was -71% and the activity at 10 µM (EKVX) was -75.1%.

With `CC[C@]12C=CCN3CC[C@@]4(c5ccc(OC)cc5N(C)[C@H]4[C@@](O)(C(=O)OC)[C@@H]1OC(=O)CCC(=O)N1CCN(Cc4ccc(C(F)(F)F)cc4)CC1)[C@@H]32` [Compound 29] the activity at 10 µM (A549/ATCC) was 25.3%, the activity at 10 µM (MCF7) was 10.9% and the activity at 10 µM (SF-539) was 11.7%. It also gave an activity at 10 µM (SK-MEL-2) of -63.4%, an activity at 10 µM (TK-10) of 45.7% and an activity at 10 µM (SW-620) of 9.15%. The activity at 10 µM (HS 578T) was 0.42%, the activity at 10 µM (M14) was -20.3% and the activity at 10 µM (NCI-H460) was -11.4%. For the same molecule, the activity at 10 µM (HL-60(TB)) was -58.2%, the activity at 10 µM (UACC-257) was 22.6% and the activity at 10 µM (SNB-75) was 7.51%. The activity at 10 µM (HCT-116) was 7.59%, the activity at 10 µM (NCI-H522) was 28.2% and the activity at 10 µM (MOLT-4) was -4.63%. It also gave an activity at 10 µM (OVCAR-3) of 0.33%, an activity at 10 µM (K-562) of -12.5% and an activity at 10 µM (A498) of 20.1%. For the same molecule, the activity at 10 µM (HT29) was -10%, the activity at 10 µM (SN12C) was 14.8% and the activity at 10 µM (NCI-H23) was 29.4%. For the same molecule, the activity at 10 µM (HCC-2998) was -52.6%, the activity at 10 µM (MALME-3M) was -26.5% and the activity at 10 µM (ACHN) was 3.7%. The activity at 10 µM (OVCAR-8) was 23.4%, the activity at 10 µM (CCRF-CEM) was 3.8% and the activity at 10 µM (RPMI-8226) was -14.2%. It also gave an activity at 10 µM (SK-MEL-5) of -90.9%, an activity at 10 µM (HCT-15) of 15% and an activity at 10 µM (KM12) of 3.78%. The activity at 10 µM (MDA-MB-435) was 3.59%, the activity at 10 µM (786–0) was 11.9% and the activity at 10 µM (SF-295) was 7.76%. The activity at 10 µM (SK-MEL-28) was 7.72%, the activity at 10 µM (NCI-H322M) was 35.4% and the activity at 10 µM (CAKI-1) was 6.02%. For the same molecule, the activity at 10 µM (COLO 205) was -91%, the activity at 10 µM (U251) was 19.1% and the activity at 10 µM (HOP-62) was 22%. For the same molecule, the activity at 10 µM (SNB-19) was 20.1%, the activity at 10 µM (IGROV1) was -31.2% and the activity at 10 µM (EKVX) was 25.4%.
